The text below walks through data of patent publication US6458781B1, “Substituted diarylalkyl amides as calcium channel antagonists” (priority 1998, dated 2002).

In test [1] the target is T1, N-type Ca2+ channels in cultured superior cervical ganglion (SCG) neurons (Rattus norvegicus, UniProt Q02294).
T1 construct: from tissue
The test is described as follows: Calcium current in superior cervical ganglion neurons (whole-cell voltage clamp). In kind it is cell-based. The conditions noted are these: for inhibition at 1 µM: read-out: SCG Ca, % blockage at 1 μM; for inhibition at 10 µM: read-out: SCG Ca, % blockage at 10 μM; for IC50: read-out: SCG Ca, IC50. The procedure:
(§1) Electrophysiological techniques were used to measure the effects of experimental compounds on voltage-gated Ca^2+, […] , and K^+ channels. […] Sodium and potassium channel currents were measured from acutely dissociated SCG neurons.
(§2) Dissociation of the neurons from the ganglia was accomplished using a 30 to 45 minute treatment in 0.25% trypsin, similar to methods outlined in Higgins, et al. (see Higgins D. et al. “Tissue culture of mammalian autonomic neurons.” In Banker G. and Goslin K. (Eds), Culturing Nerve Cells, Cambridge, Mass., MIT Press [1991]).
(§3) Ca^2+, Na^+, and K^+ channel currents in SCG neurons were measured using conventional single electrode whole-cell voltage-clamp techniques, outlined in Hamill et al., (see Hamill O. P. et al. “Improved patch-clamp techniques for high resolution current recordings from cells and cell-free membrane patches.”Pflugers Arch., 1981;391:85-100). For Ca^2+ channel experiments, the external bathing solution contained tetraethylammonium chloride (100 mM), choline chloride (52 mM), NaCl (15 mM), HEPES (10 mM), glucose (5.6 mM), CaCl2 (2 mM), and MgCl2 (0.8 mM), pH 7.35 with KOH; with the internal pipette solution containing cesium methane sulfonate (140 mM), EGTA (10 mM), and HEPES (10 mM), supplemented with 5 mM Mg^2+-ATP on the day of the experiment, pH 7.4 with CsOH. For Na^+ and K^+ channel experiments, the external bathing solution contained NaCl (150 mM), KCl (5 mM), MgCl2 (1.1 mM), CaCl2 (2.6 mM), Na-HEPES (10 mM), and glucose (10 mM), pH 7.4; with the internal pipette solution containing KCl (80 mM), K-gluconate (50 mM), HEPES (10 mM), and EGTA (10 mM), pH 7.4 with KOH. Experimental compounds were diluted into the external solution and applied to the soma of cells by local perfusion from large diameter (20-50 μm) glass micropipettes or from a U-tube applicator.
After obtaining a whole-cell recording, Ca^2+ channels were elicited by stepping to test potentials between −40 and +20 mV for 120 msec from the holding potential of −90 mV to determine if the amplitude of the current and clamp control were adequate for evaluation of drug effects. Ca^2+ channel currents were evoked by stepping from a holding potentials between −65 mV and −55 mV to a test potential of +20 mV for 150 msec every 40 seconds. The amplitude of the Ca^2+ channel currents were compared before and during drug application and drug effects expressed as percent inhibition of the amplitude of control currents.

Test [2] concerns the target T2, L-type calcium channels in A10 cells (Rattus norvegicus, UniProt P22002).
T2 construct: which endogenously expresses L-type calcium channels; host or cells: A10 rat embryonic thoracic aorta smooth muscle cells
The test is described as follows: L-type Ca2+ channel blocking potency in A10 cells (FLIPR). It counts as cell-based. To be noted: read-out: FLPA10 IC50. Put shortly: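 Rat A10 aortic smooth-muscle cells endogenously expressing L-type channels were loaded with Oregon Green BAPTA-1 and preincubated with compound for 5 min at 35 °C. Cells were then depolarized with 140 mM KCl buffer. Summed fluorescence above basal over 120 s gave % inhibition versus buffer-treated stimulated wells, with zero influx defined by 1.0×10^−6 M nitrendipine.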

Test [3] concerns K+ channels in SCG neurons. The test can be described thus: Potassium current in superior cervical ganglion neurons (whole-cell voltage clamp). It counts as cell-based, rat. The method, then:
as §1, §2, §3
For Na^+ and K^+ channel currents, following the determination of the I/V relationship for each cell in control solution, currents were evoked from a holding potential between −65 and −55 mV by stepping every 10 sec to a test potential of either 0 mV for Na^+ or +50 mV for K^+ current for a duration of 35 msec. Peak inward current was measured for Na^+ and sustained current for K^+ channel currents. […] Test compounds were applied until steady-state block was achieved. Data were expressed as percent inhibition of control amplitudes for Na^+ and K^+ channel currents.

Structures can show the parent of a compound that is named as a salt.

T1 sequence (Q02294 whole entry): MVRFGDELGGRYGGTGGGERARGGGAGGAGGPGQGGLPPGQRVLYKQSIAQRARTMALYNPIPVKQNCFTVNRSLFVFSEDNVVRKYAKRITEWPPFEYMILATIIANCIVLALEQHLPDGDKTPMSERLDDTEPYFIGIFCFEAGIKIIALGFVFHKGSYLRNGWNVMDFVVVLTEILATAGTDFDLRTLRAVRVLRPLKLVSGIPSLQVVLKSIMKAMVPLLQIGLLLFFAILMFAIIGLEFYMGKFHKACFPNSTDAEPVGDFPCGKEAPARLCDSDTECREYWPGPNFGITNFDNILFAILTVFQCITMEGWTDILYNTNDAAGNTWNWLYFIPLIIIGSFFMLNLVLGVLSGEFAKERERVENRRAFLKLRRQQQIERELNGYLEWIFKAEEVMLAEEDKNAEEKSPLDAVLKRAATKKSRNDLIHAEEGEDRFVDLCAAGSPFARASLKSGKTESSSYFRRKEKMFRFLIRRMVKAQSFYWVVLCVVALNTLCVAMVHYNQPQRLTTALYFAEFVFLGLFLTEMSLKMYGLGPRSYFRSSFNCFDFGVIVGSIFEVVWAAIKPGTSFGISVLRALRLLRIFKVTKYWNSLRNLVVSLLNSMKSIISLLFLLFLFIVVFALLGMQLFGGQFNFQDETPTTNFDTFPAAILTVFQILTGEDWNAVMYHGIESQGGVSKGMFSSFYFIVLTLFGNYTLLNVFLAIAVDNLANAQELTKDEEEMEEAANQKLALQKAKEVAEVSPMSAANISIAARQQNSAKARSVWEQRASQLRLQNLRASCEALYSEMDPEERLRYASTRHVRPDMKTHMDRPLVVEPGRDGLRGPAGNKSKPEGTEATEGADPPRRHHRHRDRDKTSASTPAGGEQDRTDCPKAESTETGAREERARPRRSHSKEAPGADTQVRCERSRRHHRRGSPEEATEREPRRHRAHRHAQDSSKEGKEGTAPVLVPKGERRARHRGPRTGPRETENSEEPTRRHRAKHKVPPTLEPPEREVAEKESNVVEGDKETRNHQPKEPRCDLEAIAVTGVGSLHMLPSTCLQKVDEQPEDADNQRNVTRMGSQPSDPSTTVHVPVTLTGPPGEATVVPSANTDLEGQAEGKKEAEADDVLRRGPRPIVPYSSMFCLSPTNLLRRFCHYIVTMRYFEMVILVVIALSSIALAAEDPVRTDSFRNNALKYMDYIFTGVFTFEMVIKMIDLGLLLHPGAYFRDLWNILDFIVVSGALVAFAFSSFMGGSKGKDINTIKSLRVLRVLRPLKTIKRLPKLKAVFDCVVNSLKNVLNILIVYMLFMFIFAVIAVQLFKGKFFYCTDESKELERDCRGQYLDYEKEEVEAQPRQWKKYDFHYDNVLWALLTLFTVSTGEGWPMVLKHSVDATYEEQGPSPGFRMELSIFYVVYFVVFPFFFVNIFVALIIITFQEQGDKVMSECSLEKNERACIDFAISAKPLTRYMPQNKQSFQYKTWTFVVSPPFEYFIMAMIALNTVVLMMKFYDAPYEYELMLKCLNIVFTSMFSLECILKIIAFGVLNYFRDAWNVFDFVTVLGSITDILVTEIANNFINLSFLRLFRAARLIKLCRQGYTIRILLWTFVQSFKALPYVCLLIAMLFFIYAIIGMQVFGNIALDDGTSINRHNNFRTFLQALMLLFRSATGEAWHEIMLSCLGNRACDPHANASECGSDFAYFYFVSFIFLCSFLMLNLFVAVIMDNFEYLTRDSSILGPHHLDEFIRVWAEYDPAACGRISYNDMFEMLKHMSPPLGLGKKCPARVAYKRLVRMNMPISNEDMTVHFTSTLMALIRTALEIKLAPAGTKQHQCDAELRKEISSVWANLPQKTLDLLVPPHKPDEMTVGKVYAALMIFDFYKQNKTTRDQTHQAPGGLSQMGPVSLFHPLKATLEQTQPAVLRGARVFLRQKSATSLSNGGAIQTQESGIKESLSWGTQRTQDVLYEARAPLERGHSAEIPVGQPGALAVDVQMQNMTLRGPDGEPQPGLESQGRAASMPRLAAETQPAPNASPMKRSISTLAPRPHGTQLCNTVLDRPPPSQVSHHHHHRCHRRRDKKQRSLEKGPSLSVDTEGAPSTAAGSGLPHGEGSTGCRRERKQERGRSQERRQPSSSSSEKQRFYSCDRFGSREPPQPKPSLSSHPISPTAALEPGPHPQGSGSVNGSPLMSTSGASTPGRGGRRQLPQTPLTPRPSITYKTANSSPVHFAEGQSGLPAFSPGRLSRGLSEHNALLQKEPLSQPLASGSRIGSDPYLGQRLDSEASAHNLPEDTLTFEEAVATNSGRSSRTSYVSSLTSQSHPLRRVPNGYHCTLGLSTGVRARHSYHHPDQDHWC
T1 sequence (P54290 25-944 partner limits assumed): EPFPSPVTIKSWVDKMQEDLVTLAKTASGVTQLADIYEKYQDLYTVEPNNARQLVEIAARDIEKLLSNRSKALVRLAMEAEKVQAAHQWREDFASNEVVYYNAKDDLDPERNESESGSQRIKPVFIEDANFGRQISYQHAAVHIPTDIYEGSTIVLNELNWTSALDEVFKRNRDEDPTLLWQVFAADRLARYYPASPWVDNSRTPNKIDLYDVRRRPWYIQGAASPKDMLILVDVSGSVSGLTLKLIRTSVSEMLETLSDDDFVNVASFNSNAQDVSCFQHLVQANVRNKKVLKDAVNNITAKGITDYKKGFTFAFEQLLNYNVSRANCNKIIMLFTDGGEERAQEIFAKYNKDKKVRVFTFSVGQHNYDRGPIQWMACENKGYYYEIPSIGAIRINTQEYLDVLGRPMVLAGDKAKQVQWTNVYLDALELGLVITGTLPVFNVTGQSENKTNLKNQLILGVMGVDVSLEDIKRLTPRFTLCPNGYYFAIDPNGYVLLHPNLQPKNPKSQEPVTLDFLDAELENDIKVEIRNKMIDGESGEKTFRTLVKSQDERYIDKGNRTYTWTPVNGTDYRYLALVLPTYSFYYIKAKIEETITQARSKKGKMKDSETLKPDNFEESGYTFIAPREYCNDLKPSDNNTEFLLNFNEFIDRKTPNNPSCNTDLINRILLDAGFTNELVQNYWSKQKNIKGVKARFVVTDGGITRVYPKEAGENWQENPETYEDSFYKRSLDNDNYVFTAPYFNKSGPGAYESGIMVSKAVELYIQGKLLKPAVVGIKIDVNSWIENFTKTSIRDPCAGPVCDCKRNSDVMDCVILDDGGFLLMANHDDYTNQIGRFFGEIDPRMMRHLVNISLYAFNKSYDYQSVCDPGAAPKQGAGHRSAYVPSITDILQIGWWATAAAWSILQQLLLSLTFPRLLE
T1 sequence (P54290 945-1091 partner limits assumed): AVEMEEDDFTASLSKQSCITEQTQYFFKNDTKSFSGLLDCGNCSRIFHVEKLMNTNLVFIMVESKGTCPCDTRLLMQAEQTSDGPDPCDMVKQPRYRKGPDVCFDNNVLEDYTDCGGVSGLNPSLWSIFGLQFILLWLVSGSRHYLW
T1 sequence (P54287 whole entry partner): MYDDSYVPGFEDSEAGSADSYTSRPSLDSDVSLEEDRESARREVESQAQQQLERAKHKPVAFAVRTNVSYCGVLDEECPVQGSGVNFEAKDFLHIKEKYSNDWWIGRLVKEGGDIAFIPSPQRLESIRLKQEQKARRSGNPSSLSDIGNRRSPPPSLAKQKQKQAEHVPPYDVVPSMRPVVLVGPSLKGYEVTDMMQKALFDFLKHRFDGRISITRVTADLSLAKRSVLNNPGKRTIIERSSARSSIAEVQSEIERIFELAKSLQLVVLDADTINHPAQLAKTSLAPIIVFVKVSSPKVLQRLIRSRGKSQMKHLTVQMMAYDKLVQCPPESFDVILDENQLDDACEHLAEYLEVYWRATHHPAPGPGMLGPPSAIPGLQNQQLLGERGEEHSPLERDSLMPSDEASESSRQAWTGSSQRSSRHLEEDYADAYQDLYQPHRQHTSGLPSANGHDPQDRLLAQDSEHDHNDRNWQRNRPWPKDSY

Regarding `CC(C)C[C@H](N)C(=O)NCCCC(c1ccc(F)cc1)c1ccc(F)cc1` [Example 7, (S)-2-Amino-4-methyl-pentanoic acid [4,4-bis-(4-fluoro-phenyl)-butyl]-amide monohydrochloride], in test [1], the inhibition at 1 µM worked out at 45% and the inhibition at 10 µM was found to be 98%. Moreover, the half-inhibitory concentration (IC50) in test [2] worked out at 280 nM. Besides, the “SCG K, % blockage at 10 μM” value in test [3] was 90% @ 10.

For `CC(C)C[C@H](NCC1CCCCC1)C(=O)NCCCC(c1ccc(F)cc1)c1ccc(F)cc1` [Example 8, (S)-2-(Cyclohexylmethyl-amino)-4-methyl-pentanoic acid [4,4-bis-(4-fluoro-phenyl)-butyl]-amide monohydrochloride], the concentration for half-maximal inhibition (IC50) was 2400 nM in test [1] and 450 nM in test [2]. In test [3], the “SCG K, % blockage at 10 μM” value turned out to be 50% @ 10.

Regarding `CC(C)=CCN[C@@H](CC(C)C)C(=O)NCCCC(c1ccc(F)cc1)c1ccc(F)cc1` [Example 9, (S)-4-Methyl-2-(3-methyl-but-2-enylamino)-pentanoic acid [4,4-bis-(4-fluoro-phenyl)-butyl]-amide monohydrochloride], the IC50 is 53000 nM in test [1], 390 nM in test [2] and 9100 nM in test [3].

Regarding `CN[C@@H](CC(C)C)C(=O)NCCCC(c1ccc(F)cc1)c1ccc(F)cc1` [Example 12, (S)-4-Methyl-2-methylamino-pentanoic acid [4,4-bis-(4-fluoro-phenyl)-butyl]-amide monohydrochloride], in test [1], the inhibition at 1 µM was found to be 3% and the inhibition at 10 µM was found to be 94%. The IC50 in test [2] worked out at 600 nM. Moreover, in test [3], the “SCG K, % blockage at 1 μM” value is given as 15% @ 1 and the “SCG K, % blockage at 10 μM” value is listed as 58% @ 10.

Consider `CC(C)C[C@@H](C(=O)NCCCC(c1ccc(F)cc1)c1ccc(F)cc1)N(C)Cc1ccc(C(C)(C)C)cc1.Cl` [Example 14, (S)-2-[(4-tert-Butyl-benzyl)-methyl-amino]-4-methyl-pentanoic acid [4,4-bis-(4-fluoro-phenyl)-butyl]-amide monohydrochloride], for which the inhibition at 10 µM in test [1] is 8%. Also, in test [2], the IC50 was above 3000 nM. Moreover, the “SCG K, % blockage at 10 μM” value in test [3] is recorded as −1% @ 10.

On to `CC(C)CCN(C)[C@@H](CC(C)C)C(=O)NCCCC(c1ccc(F)cc1)c1ccc(F)cc1` [Example 28, (S)-4-Methyl-2-[methyl-(3-methyl-butyl)-amino]-pentanoic acid [4,4-bis-(4-fluoro-phenyl)-butyl]-amide monohydrochloride], for which, in test [1], the inhibition at 1 µM amounted to 55% and the inhibition at 10 µM came to 88%. In addition, the IC50 in test [2] was 290 nM. Further, in test [3], the “SCG K, % blockage at 1 μM” value amounted to 3% @ 1 and the “SCG K, % blockage at 10 μM” value was 47% @ 10.

On to `CC(C)C[C@H](NC(=O)N1CCCCCC1)C(=O)N1CCN(C(c2ccc(F)cc2)c2ccc(F)cc2)CC1` [Example 31, (S)-Azepane-1-carboxylic acid (1-{4-[bis-(4-fluoro-phenyl)-methyl]-piperazine-1-carbonyl}-3-methyl-butyl)-amide], for which, in test [1], the inhibition at 1 µM stood at 2.5% and the inhibition at 10 µM came out at 62%. Besides, the IC50 in test [2] was found to be 1200 nM.

Consider `CC(C)[C@H](NC(=O)N1CCCCCC1)C(=O)N1CCN(C(c2ccc(F)cc2)c2ccc(F)cc2)CC1` [Example 33, (S)-Azepane-1-carboxylic acid (1-{4-[bis-(4-fluoro-phenyl)-methyl]-piperazine-1-carbonyl}-2-methyl-propyl)-amide], for which, in test [1], the inhibition at 1 µM came out at 18% and the inhibition at 10 µM was 72%. In addition, in test [2], the IC50 is 360 nM. Also, the “SCG K, % blockage at 10 μM” value in test [3] amounted to 39% @ 10.

With `CC(C)C[C@@H](CN1CCN(C(c2ccc(F)cc2)c2ccc(F)cc2)CC1)NC(=O)N1CCCCCC1` [Example 36, (S)-Azepane-1-carboxylic acid (1-{4-[bis-(4-fluoro-phenyl)-methyl]-piperazin-1-ylmethyl}-3-methyl-butyl)-amide], in test [1], the inhibition at 1 µM was 18% and the inhibition at 10 µM is 81%. The IC50 in test [2] worked out at 270 nM. The “SCG K, % blockage at 10 μM” value in test [3] is reported as 27% @ 10.

As for `CC(C)C[C@@H](C(=O)N1CCN(C(c2ccc(F)cc2)c2ccc(F)cc2)CC1)N(C)C` [Example 39, (S)-1-{4-[Bis-(4-fluoro-phenyl)-methyl]-piperazin-1-yl}-2-dimethylamino-4-methyl-pentan-1-one dihydrochloride], in test [1], the inhibition at 1 µM was 15% and the inhibition at 10 µM came out at 75%. Also, the IC50 in test [2] turned out to be 890 nM. Moreover, the “SCG K, % blockage at 1 μM” value in test [3] is recorded as 6% @ 1.
